Experimental data published in US20240130675A1, “Methods for Treating Autism Spectrum Disorder” (The General Hospital Corporation, priority 2021, published 2024).

Tests used:
adults with HF-ASD = settings: cited from earlier work
youth with ASD = experiment: Treatment response based on baseline PgACC glutamate activity (high vs normal; treatment group-by-glutamate-by-visit interaction); type: in vivo, human; settings: for Mean # of AEs / # of Participants with AEs / Treatment-Limiting AEs: TOLERABILITY
Protocol: The primary outcome was analyzed using Pearson's chi-square test at the a priori defined significance level of 0.05. Secondary measures of efficacy were analyzed using mixed-effects regression models with robust standard errors to account for the repeated measures on each subject. The primary and secondary measures were compared between memantine versus placebo as well as between those with high versus normal baseline glutamate activity levels. Participants were categorized as having high versus normal glutamate activity levels at baseline using z-scores. The population mean and SD for z-score calculations were derived from healthy control glutamate activity levels (baseline and endpoint). Glutamate activity levels with z-scores≥1 were categorized as high glutamate activity levels, those with z-scores<1 and >−1 were categorized as normal glutamate activity levels and those with z-scores≤−1 were categorized as low glutamate activity levels. Changes in PgACC glutamate activity levels within groups were tested using paired t-tests and changes between groups were tested using two-sample t-tests. We also performed ROC curve analyses to determine the predictive utility of baseline PgACC glutamate activity levels in identifying treatment responders within the memantine and placebo groups. All analyses apart from the analysis of the primary outcome were considered exploratory. Analyses were performed using a modified intent-to-treat analysis set which included all randomized patients who were regarded exposed to study medication (completed at least two weeks of treatment) and had at least one follow-up assessment.
The mixed-effects regression models used to analyze the secondary measures of efficacy predicted the outcome measure from treatment group (memantine versus placebo), study visit (continuous), and the treatment group-by-study visit interaction, which is our test of efficacy. To examine the effect of baseline PgACC glutamate activity level on the response to treatment, we predicted outcomes measures from treatment group, study visit (continuous), PgACC glutamate activity level (continuous), treatment group-by-study visit interaction, glutamate activity level-by-study visit interaction, treatment group-by-glutamate activity level interaction, and treatment group-by-glutamate activity level-by-study visit interaction. All mixed-effects regression models had random intercepts by subject ID, used robust standard errors to account for the repeated measures on each subject, and used an independent covariance structure for the random effects. […] All missing data were assumed to be missing at random.
Effect sizes are presented as standardized mean differences (SMD) for continuous outcomes and odds ratios (OR) for dichotomous outcomes. The SMDs for the difference of the changes in scores over time between memantine and placebo and between high glutamate and normal glutamate were calculated as Cohen's d using the following calculations: the difference in the change scores between the two groups divided by the pooled standard deviation. The SMDs for changes in scores within groups were calculated as Cohen's d using the following calculation: difference in score from baseline to endpoint divided by the pooled standard deviation. For comparisons of memantine versus placebo and high glutamate versus normal glutamate, positive SMDs and ORs>1 indicate better improvement in the memantine group and high glutamate group, respectively. For comparisons of ASD versus healthy controls, positive SMDs indicate lower glutamate activity levels in the ASD group. As defined by Cohen (Statistical Power Analysis for the Behavioral Sciences. 2nd ed. Hillsdale, NJ: Erlbaum. 1988), a SMD=0.2 is interpreted as a small effect size, SMD=0.5 as medium, and SMD=0.8 as large. We considered ORs>2 to be clinically meaningful.

[1] = HIGH glutamate activity levels, MEM N = 10
[2] = NORMAL glutamate activity levels, MEM N = 5
[3] = NORMAL glutamate activity levels, MEM N = 8

CC12CC3CC(C)(C1)CC(N)(C3)C2 [MEM, memantine]
Social behaviors (adults with HF-ASD; 12-week treatment, 20 mg/day, adults with HF-ASD): significant improvement in social behaviors
Responders (adults with HF-ASD; pilot study, 15-20 mg daily): four out of seven
ABC-Social Withdrawal MD (youth with ASD; [1]): −8.5 ± 7.6
ADHD-RS MD (youth with ASD; [1]): −9.9 ± 11.7
CASI-ANX MD (youth with ASD; [1]): −10.3 ± 5.1
CDRS-R MD (youth with ASD; [1]): −9.8 ± 11.2
CGI-1≤2 (youth with ASD; [1]): 9 (90) N (%)
CY-BOCS-PDD MD (youth with ASD; [1]): −0.5 ± 1.6
GAF MD (youth with ASD; [1]): 9.1 ± 5.4
SRS-Autistic Mannerisms MD (youth with ASD; [1]): −10.3 ± 5.3
SRS-SCI MD (youth with ASD; [1]): −39.8 ± 21.1
SRS-Social Awareness MD (youth with ASD; [1]): −5.0 ± 4.2
SRS-Social Cognition MD (youth with ASD; [1]): −8.1 ± 5.8
SRS-Social Communication MD (youth with ASD; [1]): −17.9 ± 7.7
SRS-Social Motivation MD (youth with ASD; [1]): −8.8 ± 5.3
SRS-Total MD (youth with ASD; [1]): −50.1 ± 25.7
≥25% ↓↓SRS (youth with ASD; [1]): 9 N
≥25% ↓↓SRS + CGI-I ≤ 2 (youth with ASD; [1]): 8 (80) N (%)
ABC-Social Withdrawal MD (youth with ASD; [2]): −3.6 ± 5.6
ADHD-RS MD (youth with ASD; [2]): −8.2 ± 7.4
CASI-ANX MD (youth with ASD; [2]): −2.4 ± 5.2
CDRS-R MD (youth with ASD; [2]): −8.0 ± 11.8
CGI-≤2 (youth with ASD; [2]): 3 (60) N (%)
CY-BOCS-PDD MD (youth with ASD; [2]): −2.0 ± 2.8
GAF MD (youth with ASD; [2]): 4.6 ± 4.3
SRS-Autistic Mannerisms MD (youth with ASD; [2]): −1.8 ± 5.1
SRS-SCI MD (youth with ASD; [2]): −9.2 ± 5.3
SRS-Social Awareness MD (youth with ASD; [2]): −0.8 ± 1.8
SRS-Social Cognition MD (youth with ASD; [2]): −2.0 ± 2.6
SRS-Social Communication MD (youth with ASD; [2]): −2.8 ± 2.7
SRS-Social Motivation MD (youth with ASD; [2]): −3.0 ± 4.0
SRS-Total MD (youth with ASD; [2]): −10.6 ± 10.6
≥25% WISRS±CGI-1≤2 (youth with ASD; [2]): 0 (0) N (%)
≥25% WLSRS (youth with ASD; [2]): 0 (0) N (%)
Mean # of AEs (youth with ASD; HIGH glutamate activity levels, MEM N = 7): 2.4 ± 1.3
# of Participants with AEs (youth with ASD; [1]): 7 (70) N (%)
Treatment-Limiting AEs (youth with ASD; [1]): 0 (0) N (%)
Mean # of AEs (youth with ASD; NORMAL glutamate activity levels, MEM N = 6): 2.8 ± 1.0
# of Participants with AEs (youth with ASD; [3]): 4 (50) N (%)
Treatment-Limiting AEs (youth with ASD; [3]): 2 (25) N (%)
Association of higher baseline PgACC glutamate activity levels with change scores (SRS Total, SRS-SCI, ABC-Social Withdrawal) (youth with ASD; memantine group): greater change scores
